The values below are quoted from earlier work in US20020155136A1, “MEDICINE CONTAINING YOHIMBINE AND ARGININE FOR TREATING ERECTILE DYSFUNCTION” (priority 1997, published 2002).

Each structure is given as a SMILES string.

The test system of data set [1] is erectile dysfunction. The conditions noted are these: 2800 mg per day; Zorgniotti and Lizza 1994.
In data set [2] the test system is impotence of psychogenic origin.

As for `N=C(N)NCCC[C@H](N)C(=O)O` [L-arginine], the “favourable effect on erectile dysfunction, proportion of cases” value in data set [1] was “approximately 40 % of cases”. Take `COC(=O)[C@@H]1[C@H]2C[C@H]3c4[nH]c5ccccc5c4CCN3C[C@@H]2CC[C@@H]1O` [yohimbine]: the side effects observed result in data set [2] (for relatively large doses, The Medical Letter 1995) was “vertigo, anxiety, nervousness, headaches, insomnia and an increase in arterial pressure”. Also, in data set [2] (impotence of psychogenic origin, published studies, results controversial), the “improvements, proportion of cases” value is 35 to 45 % of cases.
